Laboratory results reported in US4377574A, “Contraceptive treatment of male mammals” (The Salk Institute For Biological Studies, priority 1981, dated 1983).
Where a SMILES comes first, the peptide text is derived from it. [ ]: non-standard residue; d: D form. dPhe(4-Cl) = N[C@H](Cc1ccc(Cl)cc1)C(=O)O; NMeL = CN[C@@H](CC(C)C)C(=O)O; ΔPro = O=C(O)[C@@H]1C=CCN1

Legend:
[1] = tested on: pituitary gland of mammalians; settings: cited from earlier work
male rats = experiment: contraceptive treatment of male rats, 14-day daily injection; assay type: in vivo, rat; settings: 14-day treatment
Description: The peptide is used at a level effective to reduce testes and seminal vesicles weights and also to inhibit spermatogenesis after a 14-day administration to male rats. […] Prostate weights of male rats recover in 2-3 weeks and seminal vesicles weights in 4-5 weeks. It is preferred to use dosage levels in the range of from about 0.1 to about 1 milligram per rat per day, which can be administered without detrimental side effects.
Male rats (about 320 grams each) are each treated with 1 milligram of the peptide synthesized in Example I, once a day, for 14 days by injection in 0.2 ml. of corn oil. All the rats show a decrease in testes and seminal vesicles weight, spermatogenesis and plasma androgen levels.
Full recovery of testes and seminal vesicle weights and spermatogenesis ultimately occurs following cessation of the 14-day peptide administration. […] Fertility, as assessed by the ability to impregnate females, is restored in all of the rats which have not been sacrificed within 6 weeks after cessation of the injections.
A first group (I) of male rats (about 320 grams each) are each treated with 1 milligram of Peptide A synthesized in Example III, every day for 14 days, by injection in 0.2 ml. of corn oil. All the rats show a decrease in testes and seminal vesicles weight, spermatogenesis and plasma androgen levels. […]

Row | Compound | potency as an inhibitor for the release of gonadotropins relative to the same peptide with Gly in the 6-position [1] | side effects / damage (male rats)
1 | [des His^2, D--Ala^6 ] LRF | 3 times | 
2 | CC(=O)N1CC=C[C@H]1C(=O)N[C@H](Cc1ccc(Cl)cc1)C(=O)N[C@H](Cc1c[nH]c2ccccc12)C(=O)N[C@@H](CO)C(=O)N[C@@H](Cc1ccc(O)cc1)C(=O)N[C@H](Cc1c[nH]c2ccccc12)C(=O)N(C)[C@@H](CC(C)C)C(=O)N[C@@H](CCCNC(=N)N)C(=O)N1CCC[C@H]1C(=O)NCC(N)=O [Example I, [Ac--dehydro Pro^1, pCl--D--Phe^2,D--Trp^3,6,N^α MeLeu^7]--LRF] (Ac-[ΔPro][dPhe(4-Cl)][dW]SY[dW][NMeL]RPG-NH2) |  | without harmful side effects or irreversible damage
